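Cells were grown in 96-well plates and exposed to each compound for 48 hours at five concentrations; endpoints were interpolated linearly between bracketing concentrations, or set to the highest concentration if not reached. At the GI50, growth is halved.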 The source made the active and inactive calls. Cut-off read from the data, not from the text of the source: active = GI50 up to about 1.1 µM and inactive = higher.
How the values were obtained:
Experiment in all cases: NCI-60 cell line screen, 48 h
DLD-1 = system: DLD-1
SNB-75 = system: SNB-75
HL-60 = system: HL-60
SK-MEL-28 = system: SK-MEL-28
HT-29 = system: HT-29
SN12C = system: SN12C
DU-145 = system: DU-145
NCI-H23 = system: NCI-H23
TK-10 = system: TK-10
UACC-62 = system: UACC-62
786-0 = system: 786-0
BT-549 = system: BT-549
Hs-578T = system: Hs-578T
MDA-MB-231 = system: MDA-MB-231
KM12 = system: KM12
SF-539 = system: SF-539
SK-OV-3 = system: SK-OV-3
ACHN = system: ACHN
UACC-257 = system: UACC-257
SW-620 = system: SW-620

With CC[C@@]1(O)C(=O)OCc2c1cc1n(c2=O)Cc2cc3c(N)cccc3nc2-1 [9-AMINOCAMPTOTHECIN] the GI50 (DLD-1) was 566 nM (active), the GI50 (SNB-75) was < 11.5 nM (active) and the GI50 (HL-60) was < 10 nM (active). For the same molecule, the GI50 (SK-MEL-28) was 177 nM (active), the GI50 (HT-29) was 63.2 nM (active) and the GI50 (SN12C) was < 10 nM (active). For the same molecule, the GI50 (DU-145) was < 10 nM (active), the GI50 (NCI-H23) was < 10 nM (active) and the GI50 (TK-10) was 1630 nM (inactive). The GI50 (UACC-62) was < 10.2 nM (active), the GI50 (786-0) was < 10 nM (active) and the GI50 (BT-549) was 68.4 nM (active). The GI50 (Hs-578T) was 4220 nM (inactive), the GI50 (MDA-MB-231) was 272 nM (active) and the GI50 (KM12) was 230 nM (active). The GI50 (SF-539) was < 10 nM (active), the GI50 (SK-OV-3) was 15.7 nM (active) and the GI50 (ACHN) was < 10 nM (active). The GI50 (UACC-257) was 57.1 nM (active) and the GI50 (SW-620) was 32.1 nM (active).
